Assay results published in US9394264B2 (Receptos, Inc., priority 2009, dated 2016).
Like-named read-outs stand apart in the source and are kept apart here.

Assays:
Type in all cases: cell-based
[1] = target: T1, S1P3 (Homo sapiens, UniProt Q99500); assay: Specificity over other S1P receptors: S1P3-Gα15 NFAT-bla HEK293T; conditions: without Forskolin, read-out: S1P3 agonist value (EC50)
T1 construct: host or cells: NFAT-bla HEK293T
Description: (§1) Cells were seeded into 384-well black wall/clear bottom plates at 10^4 cells/well/19.5 μl assay media (DMEM-phenol free, 0.5% charcoal/dextran stripped serum, 2 mM glutamine, 0.1 mM NEAA, 1 mM Na-Pyruvate, 25 mM Hepes) and incubated for 18 hrs at 37° C. in 5% CO2. Dose response curves (10-point) were generated in 10 mM Hepes, 0.1% Pluronic F127, in the presence of Forskolin. Cells were treated with 0.5 μl compound in the presence of 2 μM Forskolin for 4 hrs at 37° C. The FRET-based β-lactamase fluorescent substrate (LiveBLAzer™-FRET B/G Loading Kit CC4-AM; Invitrogen) was prepared according to manufacturer's directions, and incubated with cells for 2 hrs at room temperature. Plates were read at Ex:410/Em:458 and Ex:410/Em:522, and the response ratio determined. Data was analyzed by non-linear regression to determine the EC50 for inhibition of Forskolin induced cAMP.
(§2) To assess compound specificity on other S1P receptors the following cell lines were used: S1P2 CRE-bla CHOK1, S1P3-Gα15 NFAT-bla HEK293T (Invitrogen), S1P4-bla TANGO U2OS (Invitrogen), S1P5-bla TANGO U2OS (Invitrogen). The same assay set up for S1P1 was used but without Forskolin. S1P4 and S1P5 assays were performed in FreeStyle Expression medium (Invitrogen). S1P5 cells were incubated for 48 hrs in prior to treatment with compound.

[2] = target: T2, S1P4 (Homo sapiens, UniProt O95977); assay: Specificity over other S1P receptors: S1P4-bla TANGO U2OS; conditions: without Forskolin, read-out: S1P4 agonist value (EC50)
T2 construct: Tango fusion (C); host or cells: U2OS (Tango, bla reporter)
T2 sequence (O95977 1-384): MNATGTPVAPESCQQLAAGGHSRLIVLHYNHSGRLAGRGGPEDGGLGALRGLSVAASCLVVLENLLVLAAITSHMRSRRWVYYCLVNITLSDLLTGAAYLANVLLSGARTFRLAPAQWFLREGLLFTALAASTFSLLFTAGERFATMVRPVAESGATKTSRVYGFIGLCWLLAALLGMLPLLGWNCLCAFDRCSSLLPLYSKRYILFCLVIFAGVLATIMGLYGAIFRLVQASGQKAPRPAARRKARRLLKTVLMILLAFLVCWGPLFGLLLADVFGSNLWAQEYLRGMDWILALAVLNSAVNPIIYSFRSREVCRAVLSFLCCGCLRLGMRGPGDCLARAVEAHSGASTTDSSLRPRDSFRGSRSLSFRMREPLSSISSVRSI
Description: as §1, §2

[3] = target: T3, S1P5 (Homo sapiens, UniProt Q9H228); assay: Specificity over other S1P receptors: S1P5-bla TANGO U2OS; conditions: without Forskolin, read-out: S1P5 agonist value (EC50)
T3 construct: Tango fusion (C); host or cells: U2OS (Tango, bla reporter)
T3 sequence (Q9H228 whole entry, the tested form may be a part): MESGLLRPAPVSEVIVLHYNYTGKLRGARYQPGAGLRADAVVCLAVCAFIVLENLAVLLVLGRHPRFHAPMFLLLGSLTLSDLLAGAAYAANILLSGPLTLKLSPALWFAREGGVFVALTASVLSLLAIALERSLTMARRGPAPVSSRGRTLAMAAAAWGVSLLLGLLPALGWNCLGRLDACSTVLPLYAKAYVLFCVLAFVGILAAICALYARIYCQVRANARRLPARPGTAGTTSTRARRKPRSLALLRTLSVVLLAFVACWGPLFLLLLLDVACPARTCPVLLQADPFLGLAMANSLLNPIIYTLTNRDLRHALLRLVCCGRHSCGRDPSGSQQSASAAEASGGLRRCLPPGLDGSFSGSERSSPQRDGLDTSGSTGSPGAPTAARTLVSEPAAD
Description: as §1, §2

[4] = target: S1P1/EDG1 (Homo sapiens, UniProt P21453); assay: S1P1 CRE-bla CHOK1 reporter assay (inhibition of Forskolin induced cAMP); conditions: S1P1 CRE-bla CHOK1 cells, 2 μM Forskolin
Sequence of S1P1/EDG1 (P21453 whole entry): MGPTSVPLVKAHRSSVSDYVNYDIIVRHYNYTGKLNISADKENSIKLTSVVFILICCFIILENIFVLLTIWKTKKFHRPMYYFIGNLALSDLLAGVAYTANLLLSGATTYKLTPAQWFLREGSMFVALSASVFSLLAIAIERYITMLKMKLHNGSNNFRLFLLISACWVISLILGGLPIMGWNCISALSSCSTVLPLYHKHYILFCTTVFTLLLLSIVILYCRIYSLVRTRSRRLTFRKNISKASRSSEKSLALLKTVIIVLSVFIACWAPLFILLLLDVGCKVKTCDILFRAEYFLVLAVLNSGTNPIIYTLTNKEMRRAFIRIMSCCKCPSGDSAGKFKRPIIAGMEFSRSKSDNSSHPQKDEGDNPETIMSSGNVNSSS
Text: A mammalian expression plasmid containing S1P1/EDG1 cloned into pcDNA3.1 was purchased from Missouri S&T cDNA Resource Centre. The nucleotide and amino acid sequence of human S1P1/EDG1 are published in Hla and Maciag (J Biol Chem, 265(1990), 9308-9313). S1P1/pcDNA3.1 was transfected into the CRE-bla CHO K1 (Invitrogen) cell line, and stable single cell clones were selected using standard techniques. Expression of functional S1P1/EDG1 receptor was confirmed by cell surface FACS with a S1P1 antibody (R&D Systems, clone 218713) and S1P-mediated inhibition of Forskolin induced cAMP.
as §1

[5] = target: T4, S1P2 (Homo sapiens, UniProt O95136); assay: Specificity over other S1P receptors: S1P2 CRE-bla CHOK1; conditions: S1P2 CRE-bla CHOK1, without Forskolin; read-out: S1P2 agonist value (EC50)
T4 construct: expressed in transfected cells; host or cells: CRE-bla CHOK1
T4 sequence (O95136 whole entry, species assumed): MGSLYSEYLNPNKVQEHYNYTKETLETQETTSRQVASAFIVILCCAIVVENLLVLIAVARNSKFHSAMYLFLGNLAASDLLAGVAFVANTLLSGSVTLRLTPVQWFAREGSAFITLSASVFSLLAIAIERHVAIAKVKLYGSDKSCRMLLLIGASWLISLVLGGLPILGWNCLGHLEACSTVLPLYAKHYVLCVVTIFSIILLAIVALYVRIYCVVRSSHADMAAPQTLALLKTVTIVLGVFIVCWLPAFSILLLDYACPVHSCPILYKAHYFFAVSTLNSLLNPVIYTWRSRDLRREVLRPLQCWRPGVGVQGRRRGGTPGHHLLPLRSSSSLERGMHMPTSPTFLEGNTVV
Description: as §1, §2

[6] = read-out: S1P1 agonist value (EC50)
[7] = agonist activity range, read-out: S1P1 ACTIVITY

T1 sequence (Q99500 whole entry): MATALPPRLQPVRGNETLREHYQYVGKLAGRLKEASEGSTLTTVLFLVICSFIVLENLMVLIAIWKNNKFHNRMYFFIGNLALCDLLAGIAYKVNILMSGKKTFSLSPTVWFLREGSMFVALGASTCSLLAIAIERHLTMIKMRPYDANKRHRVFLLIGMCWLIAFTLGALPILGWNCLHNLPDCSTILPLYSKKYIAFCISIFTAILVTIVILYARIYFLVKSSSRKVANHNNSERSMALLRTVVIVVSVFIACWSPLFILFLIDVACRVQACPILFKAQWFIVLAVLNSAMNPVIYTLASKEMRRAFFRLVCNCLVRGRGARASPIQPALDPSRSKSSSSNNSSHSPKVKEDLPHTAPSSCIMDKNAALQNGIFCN

| SMILES | EC50 [1] [nM] | EC50 [2] [nM] | EC50 [3] [nM] | EC50 [4, 6] [nM] | EC50 [4, 7] [nM] | EC50 [5] [nM] |
| --- | --- | --- | --- | --- | --- | --- |
| CC(C)Oc1ccc(-c2nc(-c3cccc4c3CCC[C@@H]4NC(=O)N3CC(O)C3)no2)cc1C#N [Compound 8, (S)-N-(5-(5-(3-cyano-4-isopropoxyphenyl)-1,2,4-oxadiazol-3-yl)-1,2,3,4-tetrahydronaphthalen-1-yl)-3-hydroxyazetidine-1-carboxamide] | > 10000 | > 10000 | 109 | 0.143 | 0.05 to 0.5 | > 10000 |
| CC(C)Oc1ccc(-c2nc(-c3cccc4c3CCC[C@H]4NC(=O)N3CC[C@H](O)C3)no2)cc1C#N [Compound 13] | > 10000 | > 10000 | 77 | 0.1 | 0.05 to 0.5 | > 10000 |
| CC(C)Oc1ccc(-c2nc(-c3cccc4c3CCC[C@@H]4NS(C)(=O)=O)no2)cc1C#N [Compound 29, (S)-N-(5-(5-(3-cyano-4-isopropoxyphenyl)-1,2,4-oxadiazol-3-yl)-1,2,3,4-tetrahydronaphthalen-1-yl)methanesulfonamide] | > 10000 | > 10000 | 37.8 | 0.065 | 0.05 to 0.5 | > 10000 |
| COCCS(=O)(=O)N[C@H]1CCCc2c(-c3noc(-c4ccc(OC(C)C)c(C#N)c4)n3)cccc21 [Compound 33, (S)-N-(5-(5-(3-cyano-4-isopropoxyphenyl)-1,2,4-oxadiazol-3-yl)-1,2,3,4-tetrahydronaphthalen-1-yl)-2-methoxyethanesulfonamide] | > 10000 | 617 | 260 | 0.192 | 0.05 to 0.5 | > 10000 |
| CC(C)Oc1ccc(-c2nc(-c3cccc4c3CCC[C@H]4NS(=O)(=O)CCO)no2)cc1C#N [Compound 37, (R)-N-(5-(5-(3-cyano-4-isopropoxyphenyl)-1,2,4-oxadiazol-3-yl)-1,2,3,4-tetrahydronaphthalen-1-yl)-2-hydroxyethanesulfonamide] | > 10000 | 879 | 3.5 | 0.024 | < 0.05 | 1440 |
| CC(C)Oc1ccc(-c2nc(-c3cccc4c3CCC[C@@H]4NCCS(C)(=O)=O)no2)cc1C#N [Compound 49, (S)-2-isopropoxy-5-(3-(5-((42-(methylsulfonyl)ethyl)amino)-5,6,7,8-tetrahydronaphthalen-1-yl)-1,2,4-oxadiazol-5-yl)benzonitrile] | > 10000 | > 10000 | 94.6 | 0.104 | 0.05 to 0.5 | > 10000 |
